Converted amounts (≈) assume the structure as drawn. Where two headings read alike, the source gives them in different places.
Columns and labels:
HIV-1(IIIB) = experiment: Knock-out concentrations: breakthrough of HIV-1(IIIB)-induced cytopathicity in CEM cell cultures; assay type: cell-based; conditions: for activity at 0.1 µg/mL / activity at 0.5 µg/mL / activity at 2.5 µg/mL: Human immunodeficiency virus 1, IIIB, CCRF-CEM, read-out: HIV-1-induced cytopathicity in cell culture; for activity at 0.1 µg/mL: 0.1 μg/ml; for activity at 0.5 µg/mL: 0.5 μg/ml; for activity at 2.5 µg/mL: 2.5 μg/ml
Summary of the method: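 CEM cells in RPMI 1640 with 10% FBS infected with HIV-1(IIIB) at ~1000× CCID50, subcultured every 3–4 days into fresh uninfected cells with drug held constant for 10 subcultivations (35 days), then ≥5 drug-free passages. Breakthrough scored by syncytium formation. Combinations used the two lowest single-drug starting concentrations.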

[1] = tested on: HIV-1/TIBO R82150 (100-Ile); experiment: Sensitivity of mutant HIV-1 strain in CEM cell cultures; assay type: cell-based; conditions: Human immunodeficiency virus 1, CCRF-CEM; CEM cells, Table 1; read-out: 50% Effective Concentration
Summary of the method: (§1)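 Infect CEM cells (250,000 cells per ml) with virus at 100 CCID50/ml; add infected suspension to wells holding diluted compound; incubate 4 days, 37° C.; examine for syncytia.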

HIV-1/IV(0.1) 103-Thr = experiment: as above; assay type: cell-based; conditions: Human immunodeficiency virus 1, CCRF-CEM; Table 5; read-out: EC50
Summary of the method: as §1

HIV-1/V(0.5) 103-Asn = experiment: as above; assay type: cell-based; conditions: Human immunodeficiency virus 1, CCRF-CEM; Table 5; read-out: EC50
Summary of the method: as §1

HIV-1/Nev (106-Ala) = experiment: as above; assay type: cell-based; conditions: Human immunodeficiency virus 1, CCRF-CEM; CEM cells, Table 1; read-out: 50% Effective Concentration
Summary of the method: as §1

[2] = tested on: HIV-1/TSAO-m^3 T (138-Lys); experiment: as above; assay type: cell-based; conditions: Human immunodeficiency virus 1, CCRF-CEM; CEM cells, Table 1; read-out: 50% Effective Concentration
Summary of the method: as §1

[3] = tested on: HIV-1/TIBO R82913 (103-Asn); experiment: as above; assay type: cell-based; conditions: Human immunodeficiency virus 1, CCRF-CEM; CEM cells, Table 1; read-out: 50% Effective Concentration
Summary of the method: as §1

HIV-1/III(0.1) 103-Asn = experiment: as above; assay type: cell-based; conditions: Human immunodeficiency virus 1, CCRF-CEM; Table 5; read-out: EC50
Summary of the method: as §1

HIV-1/Pyr (181-Cys) = experiment: as above; assay type: cell-based; conditions: Human immunodeficiency virus 1, CCRF-CEM; CEM cells, Table 1; read-out: 50% Effective Concentration
Summary of the method: as §1

[4] = tested on: HIV-1/V(0.1) 101-Ile + 141-Glu; experiment: as above; assay type: cell-based; conditions: Human immunodeficiency virus 1, CCRF-CEM; Table 5; read-out: EC50
Summary of the method: as §1

HIV-1/II(0.1) 100-Ile = experiment: as above; assay type: cell-based; conditions: Human immunodeficiency virus 1, CCRF-CEM; Table 5; read-out: EC50
Summary of the method: as §1

HIV-1/I(0.1) 103-Asn = experiment: as above; assay type: cell-based; conditions: Human immunodeficiency virus 1, CCRF-CEM; Table 5; read-out: EC50
Summary of the method: as §1

HIV-1 RT (WT) = HIV-1 RT (WT) (Human immunodeficiency virus type 1 group M subtype B, UniProt P03366); experiment: biochemical
Summary of the method: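 Recombinant HIV-1 RT incubated 30 min at 37° C with poly(C).oligo(dG) (0.1 mM) and [³H]dGTP (2.95 μM) in Tris pH 7.8 with 5 mM MgCl2, 150 mM KCl, DTT, glutathione, Triton X-100; 5-fold compound dilutions. Acid-insoluble radioactivity counted after TCA/pyrophosphate precipitation.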

HIV-1(IIIB) (WT) = experiment: microbe, parasite or virus in culture; assay type: cell-based; conditions: Human immunodeficiency virus 1, IIIB, CCRF-CEM
Summary of the method: as §1

[5] = 936 h, day 39 post infection, compound absent from day 35
[6] = 1008 h, day 42 post infection, compound absent from day 35
[7] = 1104 h, day 46 post infection, compound absent from day 35
[8] = 1176 h, day 49 post infection, compound absent from day 35
[9] = 1272 h, day 53 post infection, compound absent from day 35

For `Cc1occc1C(=S)Nc1ccc(Cl)c(C(=O)OC2CCCCC2)c1` [Compound III], the “prevention of virus breakthrough, fold more efficient than BHAP” value (HIV-1(IIIB)) was “at least 5 fold”, the “prevention of virus breakthrough, fold more efficient than nevirapine” value (HIV-1(IIIB)) was no less than 25 fold and the activity at 0.1 µg/mL (HIV-1(IIIB); 96 h, day 4 post infection) was 0%. For the same compound, the activity at 0.5 µg/mL (HIV-1(IIIB); 96 h, day 4 post infection) was 0%, the activity at 2.5 µg/mL (HIV-1(IIIB); 96 h, day 4 post infection) was 0% and the activity at 0.1 µg/mL (HIV-1(IIIB); 192 h, day 8 post infection) was 0%. It also gave an activity at 0.5 µg/mL (HIV-1(IIIB); 192 h, day 8 post infection) of 0%, an activity at 2.5 µg/mL (HIV-1(IIIB); 192 h, day 8 post infection) of 0% and an activity at 0.1 µg/mL (HIV-1(IIIB); 264 h, day 11 post infection) of 0%. For the same compound, the activity at 0.5 µg/mL (HIV-1(IIIB); 264 h, day 11 post infection) was 0%, the activity at 2.5 µg/mL (HIV-1(IIIB); 264 h, day 11 post infection) was 0% and the activity at 0.1 µg/mL (HIV-1(IIIB); 336 h, day 14 post infection) was 6.2%. For the same compound, the activity at 0.5 µg/mL (HIV-1(IIIB); 336 h, day 14 post infection) was 0%, the activity at 2.5 µg/mL (HIV-1(IIIB); 336 h, day 14 post infection) was 0% and the activity at 0.1 µg/mL (HIV-1(IIIB); 408 h, day 17 post infection) was 50%. The activity at 0.5 µg/mL (HIV-1(IIIB); 408 h, day 17 post infection) was 0%, the activity at 2.5 µg/mL (HIV-1(IIIB); 408 h, day 17 post infection) was 0% and the activity at 0.1 µg/mL (HIV-1(IIIB); 504 h, day 21 post infection) was 100%. It also gave an activity at 0.5 µg/mL (HIV-1(IIIB); 504 h, day 21 post infection) of 0%, an activity at 2.5 µg/mL (HIV-1(IIIB); 504 h, day 21 post infection) of 0% and an activity at 0.1 µg/mL (HIV-1(IIIB); 600 h, day 25 post infection) of 100%. For the same compound, the activity at 0.5 µg/mL (HIV-1(IIIB); 600 h, day 25 post infection) was 0%, the activity at 2.5 µg/mL (HIV-1(IIIB); 600 h, day 25 post infection) was 0% and the activity at 0.1 µg/mL (HIV-1(IIIB); 672 h, day 28 post infection) was 100%. It also gave an activity at 0.5 µg/mL (HIV-1(IIIB); 672 h, day 28 post infection) of 0%, an activity at 2.5 µg/mL (HIV-1(IIIB); 672 h, day 28 post infection) of 0% and an activity at 0.1 µg/mL (HIV-1(IIIB); 768 h, day 32 post infection) of 100%. The activity at 0.5 µg/mL (HIV-1(IIIB); 768 h, day 32 post infection) was 0%, the activity at 2.5 µg/mL (HIV-1(IIIB); 768 h, day 32 post infection) was 0% and the activity at 0.1 µg/mL (HIV-1(IIIB); 840 h, day 35 post infection) was 100%. It also gave an activity at 0.5 µg/mL (HIV-1(IIIB); 840 h, day 35 post infection) of 0%, an activity at 2.5 µg/mL (HIV-1(IIIB); 840 h, day 35 post infection) of 0% and an activity at 0.1 µg/mL (HIV-1(IIIB); [5]) of 100%. The activity at 0.5 µg/mL (HIV-1(IIIB); [5]) was 0%, the activity at 2.5 µg/mL (HIV-1(IIIB); [5]) was 0% and the activity at 0.1 µg/mL (HIV-1(IIIB); [6]) was 100%. The activity at 0.5 µg/mL (HIV-1(IIIB); [6]) was 0%, the activity at 2.5 µg/mL (HIV-1(IIIB); [6]) was 0% and the activity at 0.1 µg/mL (HIV-1(IIIB); [7]) was 100%. It also gave an activity at 0.5 µg/mL (HIV-1(IIIB); [7]) of 0%, an activity at 2.5 µg/mL (HIV-1(IIIB); [7]) of 0% and an activity at 0.1 µg/mL (HIV-1(IIIB); [8]) of 100%. For the same compound, the activity at 0.5 µg/mL (HIV-1(IIIB); [8]) was 0%, the activity at 2.5 µg/mL (HIV-1(IIIB); [8]) was 0% and the activity at 0.1 µg/mL (HIV-1(IIIB); [9]) was 100%. For the same compound, the activity at 0.5 µg/mL (HIV-1(IIIB); [9]) was 0%, the activity at 2.5 µg/mL (HIV-1(IIIB); [9]) was 0% and the “concentration at which virus emerged (virus breakthrough)” value (HIV-1(IIIB); tested at 0.1, 0.5 and 2.5 μg/ml, 35 days) was 0.1 µg/mL. For the same compound, the EC50 [1] was 0.17 µg/mL (≈ 0.45 µM), the EC50 (HIV-1/IV(0.1) 103-Thr) was 1.1 µg/mL (≈ 2.91 µM) and the EC50 (HIV-1/V(0.5) 103-Asn) was 0.85 µg/mL (≈ 2.25 µM). For the same compound, the EC50 (HIV-1/Nev (106-Ala)) was 0.057 µg/mL (≈ 0.151 µM), the EC50 [2] was 0.035 µg/mL (≈ 0.0926 µM) and the EC50 [3] was 0.7 µg/mL (≈ 1.85 µM). It also gave an EC50 (HIV-1/III(0.1) 103-Asn) of 0.16 µg/mL (≈ 0.423 µM), an EC50 (HIV-1/Pyr (181-Cys)) of 0.07 µg/mL (≈ 0.185 µM) and an EC50 [4] of 0.05 µg/mL (≈ 0.132 µM). For the same compound, the EC50 (HIV-1/II(0.1) 100-Ile) was 0.87 µg/mL (≈ 2.3 µM), the EC50 (HIV-1/I(0.1) 103-Asn) was 0.3 µg/mL (≈ 0.794 µM) and the IC50 (HIV-1 RT (WT); range stated for the compounds together, poly(C).oligo(dG), 2.95 μM [2,8-3H]dGTP, read-out: IC50 on recombinant HIV-1 RT) was 47.6 to 204 nM. It also gave an IC50 (HIV-1 RT (WT); substrate [2,8-3H]dGTP 2.95 μM, template poly(rC)oligo(dG), read-out: IC50, anti-HIV-1 RT (WT) activity (converted)) of 146 nM, an EC50 (HIV-1(IIIB) (WT); CEM cells, Table 1, read-out: 50% Effective Concentration) of 4 ng/mL (≈ 0.0106 µM) and an EC50 (HIV-1(IIIB) (WT); HIV-1 (III8), Table 5, read-out: EC50) of 4 ng/mL (≈ 0.0106 µM). For the same compound, the IC50 (HIV-1(IIIB) (WT); range stated for Compounds I-V together, read-out: 50% inhibitory concentration, HIV-1(IIIB) replication in CEM cells) was 0.004 to 0.05 µg/mL (≈ 0.0106 to 0.132 µM).

From patent publication US5968910A, “Compositions containing two or three inhibitors of different HIV reverse transcriptases” (priority 1994, dated 1999)
